The values below come from patent US9585821B2, “Methods for making compositions for improving skin conditions” (Allergan Industrie SAS, priority 2010, dated 2017).

The structures appear in SMILES notation.

Data set [1] can be described thus: Appearance of fluid compositions, visually examined. The class given is physicochemical. The note with it: fluid compositions comprising a matrix polymer. The procedure:
Fluid compositions made for testing were prepared as described in Example 1, except that 1) 1 mL of each fluid composition was made and the amount of mannitol added to the test fluid compositions was 0% (w/v) for control, 0.5% (w/v), 5% (w/v), 9% (w/v), and 17% (w/v). The appearance of the fluid compositions was visually examined.

A short description of data set [2]: Chemical and physical stability of mannitol after sterilization. The format is physicochemical. The settings on record: 25% Mannitol autoclaved five times at 121° C. for 15 minutes. The procedure: The chemical and physical stability of mannitol after sterilization was determined by autoclaving 25% Mannitol ([…] Pharmaceuticals, Itasca, Ill.) five times at 121° C. for 15 minutes.

For data set [3] the following is noted: known, cited from earlier work.

Turning to `OC[C@@H](O)[C@@H](O)[C@H](O)[C@H](O)CO` [mannitol], the “mannitol that fluid compositions can include before it begins to precipitate” value in data set [1] is recorded as “about 15.4%”. The “chemical and physical stability after sterilization” value in data set [2] is “chemically and physically stable”. Further, in data set [3] (in water), the mass solubility is 15.4%. For the same compound, the “mannitol solubility in water” value in data set [3] is listed as 1 g mannitol/5.5 ml water.
